We go through 8 compounds from ChEMBL document CHEMBL1201862, “PubChem BioAssay data set” (2004).

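Cells were grown in 96-well plates and exposed to each compound for 48 hours at five concentrations; endpoints were interpolated linearly between bracketing concentrations, or set to the highest concentration if not reached. At the GI50, growth is halved.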 Active and inactive are the calls of the source. No stated cut-off is given here; in the data, active = GI50 up to about 1.1 µM and inactive = higher.

Among the test systems are SK-MEL-2; OVCAR-5; Hs-578T; 786-0; MOLT-4; MCF7; RPMI-8226; SK-MEL-28; SN12C; ACHN; OVCAR-3; NCI-H23; MDA-MB-231; OVCAR-8; EKVX; SR; HCT-15; HT-29; Malme-3M.
What all share (test): DTP human tumour cell line panel, 48 h

For orientation: GI50 means the concentration giving 50% growth inhibition. Take `CC(C)(C)CC(N)=O`: the GI50 in the assay on SK-MEL-2 is > 100 µM (inactive); with OVCAR-5, > 100 µM (inactive); with Hs-578T it was > 100 µM (inactive); in the assay on 786-0, > 100 µM (inactive); with MOLT-4, > 10 µM (inactive); with MCF7, > 100 µM (inactive). The GI50 in the assay on RPMI-8226 is > 10 µM (inactive); in the assay on SK-MEL-28, > 100 µM (inactive); in the assay on SN12C, > 100 µM (inactive); in the assay with ACHN it was > 100 µM (inactive); in the assay on OVCAR-3, > 100 µM (inactive); with NCI-H23, > 100 µM (inactive). Moreover, the GI50 with MDA-MB-231 was > 100 µM (inactive); with OVCAR-8 it was > 100 µM (inactive); in the assay on EKVX it was > 100 µM (inactive); with SR it was > 100 µM (inactive); in the assay on HCT-15, over 100 µM; in the assay with HT-29 it was > 100 µM (inactive).
As to `COc1ccccc1-n1nnc2c(N)nc(N)nc21`, the GI50 with SK-MEL-2, with Malme-3M, with OVCAR-5, with Hs-578T, in the assay on 786-0 and with MOLT-4 was > 100 µM (inactive) throughout. In addition, the GI50 with MCF7, with RPMI-8226, with SK-MEL-28, with SN12C, in the assay on ACHN and with OVCAR-3 was > 100 µM (inactive) throughout. Moreover, the GI50 was > 100 µM (inactive) in the assay on NCI-H23; > 100 µM (inactive) with MDA-MB-231; > 100 µM (inactive) in the assay on OVCAR-8; > 100 µM (inactive) with EKVX; > 100 µM (inactive) in the assay with SR; over 100 µM in the assay with HCT-15. In addition, the GI50 in the assay with HT-29 is > 100 µM (inactive).
On to `CC(C)Nc1n[nH]c(=O)n1C(C)C`, for which the GI50 with SK-MEL-2 was > 100 µM (inactive); in the assay with OVCAR-5, > 100 µM (inactive); in the assay on Hs-578T, 49.9 µM (inactive); in the assay with 786-0 it was > 100 µM (inactive); with MOLT-4, > 100 µM (inactive); in the assay on MCF7 it was > 100 µM (inactive). Also, the GI50 with RPMI-8226, with SK-MEL-28, with SN12C, in the assay on ACHN, in the assay on OVCAR-3 and in the assay on NCI-H23 was > 100 µM (inactive) each time. The GI50 is > 100 µM (inactive) with MDA-MB-231; > 100 µM (inactive) with OVCAR-8; > 100 µM (inactive) with EKVX; > 100 µM (inactive) in the assay with SR; over 100 µM in the assay on HCT-15; > 100 µM (inactive) in the assay with HT-29.
Take `CC(=O)OCC(=O)OC[C@H](OCc1ccccc1)[C@@H]1[C@H](OC(C)=O)C(=O)N1Cc1ccccc1`: the GI50 in the assay with SK-MEL-2, with Malme-3M, in the assay on OVCAR-5, with Hs-578T, in the assay on 786-0 and in the assay with MOLT-4 was > 100 µM (inactive) each time. Further, the GI50 with MCF7, in the assay with RPMI-8226, in the assay on SK-MEL-28, in the assay with SN12C, in the assay on ACHN and with OVCAR-3 was > 100 µM (inactive) in each case. The GI50 with NCI-H23 is > 100 µM (inactive); in the assay with MDA-MB-231, > 100 µM (inactive); in the assay with OVCAR-8, > 100 µM (inactive); in the assay with EKVX, > 100 µM (inactive); with SR, > 100 µM (inactive); in the assay on HCT-15, over 100 µM. Moreover, the GI50 in the assay with HT-29 was > 100 µM (inactive).
In the case of `COc1ccc(C2=C(N)c3cc(OC)ccc3C2=O)cc1`, the GI50 in the assay with SK-MEL-2 was > 100 µM (inactive); in the assay on Malme-3M, > 100 µM (inactive); in the assay with OVCAR-5, > 100 µM (inactive); in the assay with Hs-578T it was 4.25 µM (inactive); in the assay with 786-0 it was > 100 µM (inactive); in the assay with MOLT-4, > 100 µM (inactive). Further, the GI50 with MCF7 was > 100 µM (inactive); in the assay with RPMI-8226 it was 38.2 µM (inactive); in the assay with SK-MEL-28, > 100 µM (inactive); in the assay with SN12C, > 100 µM (inactive); in the assay on ACHN it was 49.9 µM (inactive); in the assay with OVCAR-3 it was > 100 µM (inactive). Also, the GI50 in the assay on NCI-H23 was 55.7 µM (inactive); with MDA-MB-231, > 100 µM (inactive); in the assay on OVCAR-8, > 100 µM (inactive); with EKVX it was > 100 µM (inactive); in the assay on SR it was 23.8 µM (inactive); with HCT-15, over 100 µM. In addition, the GI50 in the assay with HT-29 was > 100 µM (inactive).
In the case of `Oc1ccccc1/C=N/c1ccc(Oc2ccc(Cl)cc2)c(Cl)c1`, the GI50 was 13.6 µM (inactive) in the assay with SK-MEL-2; 19.5 µM (inactive) in the assay with Malme-3M; 26.1 µM (inactive) in the assay on OVCAR-5; 19.7 µM (inactive) with Hs-578T; 26 µM (inactive) in the assay with 786-0; 30.1 µM (inactive) with MOLT-4. Moreover, the GI50 was 41.7 µM (inactive) in the assay on MCF7; 21.5 µM (inactive) with RPMI-8226; 25 µM (inactive) in the assay with SK-MEL-28; 21.8 µM (inactive) in the assay with SN12C; 30.3 µM (inactive) with ACHN; 15 µM (inactive) with OVCAR-3. Besides, the GI50 in the assay on NCI-H23 is 18.6 µM (inactive); in the assay on MDA-MB-231 it was 16.1 µM (inactive); in the assay with OVCAR-8, 19.9 µM (inactive); with EKVX, 21.3 µM (inactive); in the assay with SR, 38.2 µM (inactive); in the assay on HCT-15, 16.3 µM. In addition, in the assay with HT-29, the GI50 is 19.5 µM (inactive).
As for `COc1cc2c(cc1OC)C1c3ccccc3CCCN1CC2` (stereo unspecified), the GI50 in the assay with SK-MEL-2, in the assay on Malme-3M, with OVCAR-5, in the assay on Hs-578T, with 786-0 and with MOLT-4 was > 100 µM (inactive) each time. The GI50 is > 100 µM (inactive) with MCF7; 46.7 µM (inactive) with RPMI-8226; > 100 µM (inactive) in the assay on SK-MEL-28; > 100 µM (inactive) in the assay on SN12C; > 100 µM (inactive) in the assay with ACHN; > 100 µM (inactive) with OVCAR-3. For the same compound, the GI50 in the assay with NCI-H23 is > 100 µM (inactive); in the assay on MDA-MB-231, > 100 µM (inactive); in the assay on OVCAR-8, > 100 µM (inactive); in the assay with EKVX, > 100 µM (inactive); with SR, > 100 µM (inactive); with HCT-15, over 100 µM. Also, in the assay with HT-29, the GI50 was 51.2 µM (inactive).
Turning to `COc1cc([C@@H]2c3cc4c(cc3C[C@H]3COC(=O)[C@@H]32)OCO4)cc(OC)c1OC` [DESOXYPODOPHYLLOTOXIN], the 50% growth inhibitory concentration (GI50) was 0.0074 µM (active) in the assay with SK-MEL-2; 0.0149 µM (active) in the assay on Malme-3M; > 10.8 µM (inactive) in the assay with OVCAR-5; 0.00204 µM (active) in the assay on Hs-578T; 0.00372 µM (active) with 786-0; 0.00893 µM (active) in the assay on MOLT-4. The GI50 in the assay with MCF7 is 0.00875 µM (active); in the assay on SK-MEL-28, 0.0125 µM (active); with SN12C, 0.00995 µM (active); in the assay on ACHN it was 0.00393 µM (active); in the assay with NCI-H23 it was 0.00714 µM (active); in the assay on MDA-MB-231, < 0.01 µM (active). In addition, the GI50 was 0.00721 µM (active) in the assay on OVCAR-8, 0.005 µM (active) in the assay on EKVX and 0.00376 µM (active) in the assay with SR.
